target: T1, Xenopus laevis Aurora B/INCENP complex (Xenopus laevis, UniProt Q6DE08); experiment: Aurora-B kinase assay (radioactive enzyme inhibition assay); format: biochemical; details: test substance at 1 μM; percentage of the positive control (maximum value without test substance)
T1 construct: equipped at the N-terminal position with a GST tag (amino acids 60-361); GST (N, cleaved yes); made in house; host or cells: E. coli BL21 (DE3)
Excerpt: Example Aurora-B Kinase Assay
A radioactive enzyme inhibition assay was developed using E. coli-expressed recombinant Xenopus laevis Aurora B wild-type protein equipped at the N-terminal position with a GST tag (amino acids 60-361) in a complex with Xenopus laevis INCENP (amino acids 790-847), which is obtained from bacteria and purified. In equivalent manner a Xenopus laevis Aurora B mutant (G96V) in a complex with Xenopus laevis INCENP^790-847 may also be used.
Expression and Purification
The coding sequence for Aurora-B^60-361 from Xenopus laevis is cloned into a modified version of pGEX-6T (Amersham Biotech) via BamHI and SalI cutting sites. The vector contains two cloning cassettes which are separated by a ribosomal binding site, allowing bi-cistronic expression. In this configuration Xenopus laevis Aurora B is expressed by the first cassette, and the Xenopus laevis INCENP^790-847 is expressed by the second cassette. The resulting vector is pAUB-IN^847.
First of all the E. coli strain BL21 (DE3) is co-transformed with pUBS520 helper plasmid and pAUB-IN^847, after which protein expression is induced using 0.3 mM IPTG at an OD600 of 0.45-0.7. The expression is then continued for approx. 12-16 h at 23-25° C. with agitation.
The bacteria are then removed by centrifuging and the pellet is lysed in lysis buffer (50 mM Tris/Cl pH 7.6, 300 mM NaCl, 1 mM DTT, 1 mM EDTA, 5% glycerol, Roche Complete Protease Inhibitor tablets) using ultrasound, using 20-30 mL lysis buffer per liter of E. coli culture. The lysed material is freed from debris by centrifugation (12000 rpm, 45-60 min, JA20 rotor). The supernatant is incubated with 300 μL of equilibrated GST Sepharose Fast Flow (Amersham Biosciences) per liter of E. coli culture for 4-5 h at 4° C. Then the column material is washed with 30 volumes of lysis buffer and then equilibrated with 30 volumes of cleavage buffer (50 mM Tris/Cl pH 7.6, 150 mM NaCl, 1 mM DTT, 1 mM EDTA). To cleave the GST tag from Aurora B, 10 units of Prescission Protease (Amersham Biosciences) are used per milligram of substrate and the mixture is incubated for 16 h at 4° C. The supernatant which contains the cleavage product is loaded onto a 6 mL Resource Q column (Amersham Biosciences) equilibrated with ion exchange buffer (50 mM Tris/Cl pH 7.6, 150 mM NaCl, 1 mM DTT, 1 mM EDTA). The Aurora B/INCENP complex is caught as it flows through, then concentrated and loaded onto a Superdex 200 size exclusion chromatography (SEC) column equilibrated with SEC buffer (10 mM Tris/Cl pH 7.6, 150 mM NaCl, 1 mM DTT, 1 mM EDTA). Fractions which contain the AuroraB/INCENP complex are collected and concentrated using Vivaspin concentrators (molecular weight exclusion 3000-5000 Da) to a final concentration of 12 mg/mL. Aliquots (e.g. 240 ng/μL) for kinase assays are transferred from this stock solution into freezing buffer (50 mM Tris/Cl pH 8.0, 150 mM NaCl, 0.1 mM EDTA, 0.03% Brij-35, 10% glycerol, 1 mM DTT) and stored at −80° C.
Test substances are placed in a polypropylene dish (96 wells, Greiner #655 201), in order to cover a concentration frame of 10 μM-0.0001 μM. The final concentration of DMSO in the assay is 5%. 30 μL of protein mix (50 mM tris/Cl pH 7.5, 25 mM MgCl2, 25 mM NaCl, 167 μM ATP, 10 ng Xenopus laevis Aurora B/INCENP complex in freezing buffer) are pipetted into the 10 μl of test substance provided in 25% DMSO and this is incubated for 15 min at RT. Then 10 μL of peptide mix (100 mM tris/Cl pH 7.5, 50 mM MgCl2, 50 mM NaCl, 5 μM NaF, 5 μM DTT, 1 μCi gamma-P33-ATP [Amersham], 50 μM substrate peptide [biotin-[…] or multimers thereof, or biotin-[…] or multimers thereof, or biotin-[…]]) are added. The reaction is incubated for 75 min (ambient temperature) and stopped by the addition of 180 μL of 6.4% trichloroacetic acid and incubated for 20 min on ice. […]

T1 sequence (Q6DE08 60-361): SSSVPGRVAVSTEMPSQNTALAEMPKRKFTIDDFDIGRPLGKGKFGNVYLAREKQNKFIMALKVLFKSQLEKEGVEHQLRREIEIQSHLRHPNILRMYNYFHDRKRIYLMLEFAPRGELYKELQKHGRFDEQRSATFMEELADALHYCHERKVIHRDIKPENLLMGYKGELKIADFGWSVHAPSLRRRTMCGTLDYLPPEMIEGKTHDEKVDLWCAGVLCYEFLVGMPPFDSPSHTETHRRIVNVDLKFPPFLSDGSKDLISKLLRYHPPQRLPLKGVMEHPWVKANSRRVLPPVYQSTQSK
T1 sequence (O13024 790-847 partner limits assumed): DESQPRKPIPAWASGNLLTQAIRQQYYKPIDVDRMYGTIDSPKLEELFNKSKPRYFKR

| Compound | remaining activity at 1 µM [%] |
| --- | --- |
| CCNc1cnc(-c2ccc3c(c2)NC(=O)/C3=C(\Nc2ccc(CN(C)C)cc2)c2ccccc2)cn1 [Example 1] | 15.2 |
| CN(C)Cc1ccc(N/C(=C2\C(=O)Nc3cc(-c4cnc(NCC5CC5)cn4)ccc32)c2ccccc2)cc1 [Example 2] | 12.6 |
| CCNc1ccc(-c2ccc3c(c2)NC(=O)/C3=C(\Nc2ccc(CN(C)C)cc2)c2ccccc2)cn1 [Example 5] | 7.08 |
| CN(C)Cc1ccc(N/C(=C2\C(=O)Nc3cc(-c4ccc(N(C)C)nc4)ccc32)c2ccccc2)cc1 [Example 6] | 11.4 |
| CNc1ccc(-c2ccc3c(c2)NC(=O)/C3=C(\Nc2ccc(CN(C)C)cc2)c2ccccc2)cn1 [Example 8] | 15.6 |
| CN(C)Cc1ccc(N/C(=C2\C(=O)Nc3cc(-c4cnc(N5CCCC5)nc4)ccc32)c2ccccc2)cc1 [Example 10] | 10.6 |
| CN(C)Cc1ccc(N/C(=C2\C(=O)Nc3cc(-c4ccc(S(C)(=O)=O)cc4)ccc32)c2ccccc2)cc1 [Example 12] | 40 |
| CN(C)Cc1ccc(N/C(=C2\C(=O)Nc3cc(-c4ccc(N5CCOCC5)nc4)ccc32)c2ccccc2)cc1 [Example 14] | 20.7 |
| CN(C)Cc1ccc(N/C(=C2\C(=O)Nc3cc(-c4ccc(OCC5CC5)nc4)ccc32)c2ccccc2)cc1 [Example 15] | 22 |
| Cc1ccc(-c2ccc3c(c2)NC(=O)/C3=C(\Nc2ccc(CN(C)C)cc2)c2ccccc2)cn1 [Example 17] | 21.1 |
| Cc1cnccc1-c1ccc2c(c1)NC(=O)/C2=C(\Nc1ccc(CN(C)C)cc1)c1ccccc1 [Example 20] | 107 |
| CN(C)Cc1ccc(N/C(=C2\C(=O)Nc3cc(-c4ccccc4NS(C)(=O)=O)ccc32)c2ccccc2)cc1 [Example 23] | 70.6 |
| CN(C)Cc1ccc(N/C(=C2\C(=O)Nc3cc(-c4cccc(C#N)c4)ccc32)c2ccccc2)cc1 [Example 39] | 30.9 |
| CN(C)Cc1ccc(N/C(=C2\C(=O)Nc3cc(-c4cnc5ccccc5c4)ccc32)c2ccccc2)cc1 [Example 40] | 34.7 |
| CC(=O)c1cncc(-c2ccc3c(c2)NC(=O)/C3=C(\Nc2ccc(CN(C)C)cc2)c2ccccc2)c1 [Example 41] | 13.5 |
| CN(C)Cc1ccc(N/C(=C2\C(=O)Nc3cc(-c4cnc(C(=O)O)nc4)ccc32)c2ccccc2)cc1 [Example 42] | 139 |
| CN(C)Cc1ccc(N/C(=C2\C(=O)Nc3cc(-c4ccc(C(N)=O)cc4)ccc32)c2ccccc2)cc1 [Example 43] | 102 |
| CN(C)Cc1ccc(N/C(=C2\C(=O)Nc3cc(-c4cnc(N(C)C)nc4)ccc32)c2ccccc2)cc1 [Example 44] | 27.9 |
| CN(C)Cc1ccc(N/C(=C2\C(=O)Nc3cc(-c4cnc(NC5CCC5)nc4)ccc32)c2ccccc2)cc1 [Example 45] | 1.76 |
| CC(C)Nc1ncc(-c2ccc3c(c2)NC(=O)/C3=C(\Nc2ccc(CN(C)C)cc2)c2ccccc2)cn1 [Example 46] | 2.13 |
| CN(C)Cc1ccc(N/C(=C2\C(=O)Nc3cc(-c4cnc(NCC(F)F)nc4)ccc32)c2ccccc2)cc1 [Example 47] | 1.59 |
| CN(C)Cc1ccc(N/C(=C2\C(=O)Nc3cc(-c4cnc(NC5CC5)nc4)ccc32)c2ccccc2)cc1 [Example 48] | 3.44 |
| CCCNc1ncc(-c2ccc3c(c2)NC(=O)/C3=C(\Nc2ccc(CN(C)C)cc2)c2ccccc2)cn1 [Example 50] | 2.79 |
| CN(C)Cc1ccc(N/C(=C2\C(=O)Nc3cc(-c4cnc(NCC5CC5)nc4)ccc32)c2ccccc2)cc1 [Example 51] | 3.84 |

| Compound | remaining activity at 1 µM [%] |
| --- | --- |
| CCNc1ncc(-c2ccc3c(c2)NC(=O)/C3=C(\Nc2ccc(CN(C)C)cc2)c2ccccc2)cn1 [Example 52] | 2.78 |
| CN(C)Cc1ccc(N/C(=C2\C(=O)Nc3cc(-c4ccc(C(=O)O)nc4)ccc32)c2ccccc2)cc1 [Example 54] | 157 |
| CN(C)Cc1ccc(N/C(=C2\C(=O)Nc3cc(-c4ccc(NCC5CC5)nc4)ccc32)c2ccccc2)cc1 [Example 55] | 5.91 |
| CN(C)Cc1ccc(N/C(=C2\C(=O)Nc3cc(-c4ccc(NC5CCC5)nc4)ccc32)c2ccccc2)cc1 [Example 56] | 5.45 |
| CCCNc1ccc(-c2ccc3c(c2)NC(=O)/C3=C(\Nc2ccc(CN(C)C)cc2)c2ccccc2)cn1 [Example 57] | 5.74 |
| CC(C)Nc1ccc(-c2ccc3c(c2)NC(=O)/C3=C(\Nc2ccc(CN(C)C)cc2)c2ccccc2)cn1 [Example 58] | 8.01 |
| CN(C)Cc1ccc(N/C(=C2\C(=O)Nc3cc(-c4ccc(NC5CC5)nc4)ccc32)c2ccccc2)cc1 [Example 59] | 9.19 |
| CN(C)Cc1ccc(N/C(=C2\C(=O)Nc3cc(-c4ccc5c(c4)CC(=O)N5)ccc32)c2ccccc2)cc1 [Example 60] | 26.3 |
| CN(C)Cc1ccc(N/C(=C2\C(=O)Nc3cc(-c4cn[nH]c4)ccc32)c2ccccc2)cc1 [Example 61] | 14.1 |
| CC(=O)Nc1ccc(-c2ccc3c(c2)NC(=O)/C3=C(\Nc2ccc(CN(C)C)cc2)c2ccccc2)cn1 [Example 62] | 1.96 |
| COc1cncc(-c2ccc3c(c2)NC(=O)/C3=C(\Nc2ccc(CN(C)C)cc2)c2ccccc2)c1 [Example 63] | 11 |
| CN(C)Cc1ccc(N/C(=C2\C(=O)Nc3cc(-c4cccc(-n5cccn5)c4)ccc32)c2ccccc2)cc1 [Example 64] | 13.4 |
| CN(C)Cc1ccc(N/C(=C2\C(=O)Nc3cc(-c4cccc(S(=O)(=O)N(C)C)c4)ccc32)c2ccccc2)cc1 [Example 65] | 27.6 |
| CN(C)Cc1ccc(N/C(=C2\C(=O)Nc3cc(-c4ccc(N)nc4)ccc32)c2ccccc2)cc1 [Example 66] | 18.3 |
| CN(C)Cc1ccc(N/C(=C2\C(=O)Nc3cc(-c4cccc(S(N)(=O)=O)c4)ccc32)c2ccccc2)cc1 [Example 67] | 5.48 |
| CN(C)Cc1ccc(N/C(=C2\C(=O)Nc3cc(-c4cccc(C(N)=O)c4)ccc32)c2ccccc2)cc1 [Example 68] | 18.1 |
| CC(=O)Nc1cccc(-c2ccc3c(c2)NC(=O)/C3=C(\Nc2ccc(CN(C)C)cc2)c2ccccc2)c1 [Example 69] | 17.2 |
| COc1ccc(-c2ccc3c(c2)NC(=O)/C3=C(\Nc2ccc(CN(C)C)cc2)c2ccccc2)cn1 [Example 70] | 17.3 |
| CN(C)Cc1ccc(N/C(=C2\C(=O)Nc3cc(-c4cccnc4)ccc32)c2ccccc2)cc1 [Example 71] | 24.5 |
| CC(=O)Nc1ccc(-c2ccc3c(c2)NC(=O)/C3=C(\Nc2ccc(CN(C)C)cc2)c2ccccc2)cc1 [Example 72] | 3.37 |
| CC(C)Nc1ncc(-c2cc3c(cc2F)/C(=C(/Nc2ccc(CN(C)C)cc2)c2ccccc2)C(=O)N3)cn1 [Example 73] | 5.59 |
| CC(C)Nc1ncc(-c2ccc3c(c2)NC(=O)/C3=C(\Nc2ccc(N(C)C(=O)CN(C)C)cc2)c2ccccc2)cn1 [Example 75] | 1.74 |
| CC(C)Nc1ncc(-c2ccc3c(c2)NC(=O)/C3=C(\NC2CCOCC2)c2ccccc2)cn1 [Example 77] | 96.2 |
